Assay results: patent publication EP4752152A1, “STEROID COMPOUND, AND PREPARATION METHOD THEREFOR AND USE THEREOF” (Cholesgen (Shanghai) Co.Ltd., priority 2023, dated 2025)
Values after ≈ are worked out from the molar mass of the structure shown. Read-outs that look alike come from different tables or passages of the source.

Columns and labels:
[1] = Solubility in fasted-state simulated intestinal fluid (FaSSIF); assay type: physicochemical; conditions: FaSSIF pH 6.5, 300 µM sample solution, room temperature
Protocol: Compound powder was dissolved in DMSO to prepare a 10.0 mM stock solution for later use. 0.021 g NaOH, 0.198 g NaH2PO4, and 0.309 g NaCl were weighed and added to 50.0 mL of ultrapure water. After thorough mixing, the pH was adjusted to 6.5 using HCl or NaOH. Then, 0.112 g of FaSSIF powder was added. After complete dissolution, the solution was allowed to stand at room temperature for 2 hours for later use. A certain volume of the compound stock solution was added to a certain volume of FaSSIF to prepare a 300 µM sample solution, which was mixed at room temperature under 1000 rpm for 1 hour. After 1 hour, the sample was centrifuged, and a certain volume of supernatant was taken. The termination solution was added to precipitate the sample, which was then thoroughly mixed and centrifuged for 20 minutes. The supernatant was then taken again, diluted with dilution solution, and then analyzed by liquid chromatography-tandem mass spectrometry (LC-MS/MS). The concentration of the test compound in the samples was quantitatively determined using LC-MS/MS. Table 3: FaSSIF solubility results of compounds from some examples

[2] = tested on: Fatty Acid Synthase (FASN) gene; assay: Inhibition of FASN gene expression (qPCR) in Huh-7 cells; assay type: cell-based, human; conditions: read-out: FASN IC50
Method in brief: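 Huh-7 cells switched to starvation DMEM (5% LPDS, 2 µM lovastatin, 10 µM mevalonate) and treated 16 h with compound, top 3000 nM, 3-fold dilutions, 5 concentrations. FASN mRNA by RT-qPCR; inhibition relative to DMSO, IC50 from four-parameter fit.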

[3] = tested on: SREBP pathway; assay: SREBP luciferase reporter gene system (SRE-luciferase assay); assay type: cell-based, human; conditions: Huh-7/SRE-luc cells, sterol-deficient medium, 0.01-10 µM
Method in brief: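 Huh-7 cells stably carrying LDLR promoter-luciferase plus GFP were treated 16 h in sterol-deficient medium (5% lipoprotein-deficient serum, 2 µM lovastatin, 10 µM mevalonic acid) at 0.01–10 µM. Luciferase/GFP ratio measured as pathway activity; inhibition versus DMSO fitted to a four-parameter model for IC50.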

[4] = Metabolic stability experiment of mouse liver microsomes; assay type: in vitro ADME
Protocol: PB solution (100 mM), MgCl2 solution (300 mM), NADPH solution (2.04 mM), and mouse liver microsome (SHQY catalog number: M1000, batch number: 2110330) solution (1.00 mg/mL) were prepared respectively. […] Then, 100 µL of mouse liver microsome solution was added to a 96-well sample plate. For the 0 min sample, acetonitrile solution containing the internal standard was first added; then, 2 µL of 100 µM working solution was added; followed by the addition of 98 µL of pre-warmed 2.04 mM NADPH at 37°C. For the 5 min, 15 min, 30 min, 45 min, and 60 min samples, 2 µL of 100 µM working solution was first added; followed by the addition of 98 µL of pre-warmed 2.04 mM NADPH at 37°C to initiate the reaction; upon reaching the respective time points, a solution of acetonitrile containing the internal standard was added to terminate the reaction. For the NCF60 sample, 2 µL of 100 µM working solution was first added; followed by the addition of 98 µL of pre-warmed PB at 37°C to initiate the reaction; upon reaching the respective time points, a solution of acetonitrile containing the internal standard was added to terminate the reaction. During the experiment, all samples were incubated in a 37°C water bath. All samples were shaken on an oscillator at 800 rpm for 10 min, then centrifuged at 3200 g for 20 min. The supernatant was aspirated, diluted with deionized water at the corresponding ratio, and analyzed by LC-MS/MS. The remaining percentage of the compound at each time point was obtained by dividing the peak area ratio of the compound at 5, 15, 30, 45, and 60 min by the peak area ratio at 0 min. The half-life (T1/2) of the compound was then calculated using Excel. Table 2: Mouse liver microsome stability results of compounds from some examples

[5] = Huh-7 cells, starvation medium, 16 hours, qPCR, class symbols
[6] = FaSSIF, pH 6.5, fassif, kinetic from dmso stock
[7] = Homo sapiens, Huh-7, 16 h, Huh-7 cells, starvation medium, 16 hours, qPCR, class symbols

Compound	solubility at 1 h [1, 6]	IC50 [2, 7]	IC50 ([3]; Homo sapiens, Huh-7, 16 h)	other results
COc1nc(F)ccc1C(O)CCC[C@@H](C)[C@H]1CC[C@H]2[C@H]3[C@H](CC[C@]12C)[C@@]1(C)CC[C@H](O)[C@H](O)[C@@H]1CC3(F)F (single isomer, unassigned) [Compound 189, (1R,3aS,3bS,5aR,6R,7S,9aR,9bS,11aR)-4,4-difluoro-1-[(2R,6R)-6-(6-fluoro-2-methoxypyridin-3-yl)-6-hydroxyhexan-2-yl]-9a,11a-dimethylhexadecahydro-1H-cyclopenta[1,2-a]phenanthrene-6,7-diol or (1R,3aS,3bS,5aR,6R,7S,9aR,9bS,11aR)-4,4-difluoro-1-[(2R,6S)-6-(6-fluoro-2-methoxypyridin-3-yl)-6-hydroxyhexan-2-yl]-9a,11a-dimethylhexadecahydro-1H-cyclopenta[1,2-a]phenanthrene-6,7-diol]				solubility at 1 h ([1]; 60 min): 157.08 µM (≈ 87 µg/mL); IC50 [2, 5]: < 200 nM; IC50 ([3]; 16 hours): 0.0231 µM
C[C@H](CCCC(O)c1cccc2c1OC(F)(F)O2)[C@H]1CC[C@H]2[C@H]3[C@H](CC[C@]12C)[C@@]1(C)CC[C@H](O)[C@H](O)[C@@H]1CC3(F)F (single isomer, unassigned) [Compound 195, (1R,3aS,3bS,5aR,6R,7S,9aR,9bS,11aR)-1-[(2R,6R)-6-(2,2-difluorobenzo[d][1,3]dioxol-4-yl)-6-hydroxyhexan-2-yl]-4,4-difluoro-9a,11a-dimethylhexadecahydro-1H-cyclopenta[1,2-a]phenanthrene-6,7-diol or (1R,3aS,3bS,5aR,6R,7S,9aR,9bS,11aR)-1-[(2R,6S)-6-(2,2-difluorobenzo[d][1,3]dioxol-4-yl)-6-hydroxyhexan-2-yl]-4,4-difluoro-9a,11a-dimethylhexadecahydro-1H-cyclopenta[1,2-a]phenanthrene-6,7-diol]	244 µM (≈ 143 µg/mL)			IC50 [2, 5]: < 200 nM; IC50 ([3]; 16 hours): 0.067 µM
COc1cc(F)nc(F)c1[C@@H](O)CCC[C@@H](C)[C@H]1CC[C@H]2[C@H]3[C@H](CC[C@]12C)[C@@]1(C)CC[C@H](O)[C@H](O)[C@@H]1CC3(F)F (single isomer, unassigned) [Compound 234]	49.3 µM (≈ 28.2 µg/mL)	< 200 nM	0.029 µM	
COc1cc(F)nc(OC)c1[C@@H](O)CCC[C@@H](C)[C@H]1CC[C@H]2[C@H]3[C@H](CC[C@]12C)[C@@]1(C)CC[C@H](O)[C@H](O)[C@@H]1CC3(F)F (single isomer, unassigned) [Compound 263]	63 µM (≈ 36.8 µg/mL)	< 200 nM	0.032 µM	
C[C@H](CCCC(O)c1ccc2c(n1)OC(F)(F)O2)[C@H]1CC[C@H]2[C@H]3[C@H](CC[C@]12C)[C@@]1(C)CC[C@H](O)[C@H](O)[C@@H]1CC3(F)F (single isomer, unassigned) [Compound 265]	107 µM (≈ 62.9 µg/mL)			IC50 ([2]; Homo sapiens, Huh-7, 16 h): < 200 nM; IC50 ([3]; 16 hours): 0.006 µM
CCOc1nc(F)ccc1[C@H](O)CCC[C@@H](C)[C@H]1CC[C@H]2[C@H]3[C@H](CC[C@]12C)[C@@]1(C)CC[C@H](O)[C@H](O)[C@@H]1CC3(F)F (single isomer, unassigned) [Compound 283]	288 µM (≈ 163 µg/mL)	< 200 nM	0.027 µM	
COc1cccc(F)c1C(O)CCC[C@@H](C)[C@H]1CC[C@H]2[C@@H]3CC[C@H]4[C@@H](O)[C@@H](O)CC[C@]4(C)[C@H]3CC[C@]12C (stereo partly drawn) [Compound 20, 24-[(2-Fluoro-6-methoxyphenyl)(hydroxy)methyl]-5α-cholane-3β,4β-diol]			0.23 µM	half-life at 1 µM [4]: 0.498 h
COc1cc(F)ccc1C(O)CCC[C@@H](C)[C@H]1CC[C@H]2C3=C(F)C[C@H]4[C@@H](O)[C@@H](O)CC[C@]4(C)[C@H]3CC[C@]12C (stereo partly drawn) [Compound 36, (1R,3aR,5aR,6R,7S,9aR,9bR,11aR)-4-fluoro-1-[(2R)-6-(4-fluoro-2-methoxyphenyl)-6-hydroxyhexan-2-yl]-9a,11a-dimethyl-2,3,3a,5,5a,6,7,8,9,9a,9b,10,11,11a-tetradecahydro-1H-cyclopenta[1,2-a]phenanthrene-6,7-diol]			0.2 µM	half-life at 1 µM [4]: > 3.1 h
COc1nccc(F)c1C(O)CCC[C@@H](C)[C@H]1CC[C@H]2[C@H]3[C@H](CC[C@]12C)[C@@]1(C)CC[C@H](O)[C@H](O)[C@@H]1CC3(F)F (stereo partly drawn) [Compound 126, (1R,3aS,3bS,5aR,6R,7S,9aR,9bS,11aR)-4,4-difluoro-1-[(2R)-6-(4-fluoro-2-methoxypyridin-3-yl)-6-hydroxyhexan-2-yl]-9a,11a-dimethylhexadecahydro-1H-cyclopenta[1,2-a]phenanthrene-6,7-diol]			0.153 µM	half-life at 1 µM [4]: 1.79 h
C[C@H](CCC1CC(N)C1)[C@H]1CC[C@H]2[C@@H]3CC[C@H]4C[C@@H](O)CC[C@]4(C)[C@H]3CC[C@]12C (stereo partly drawn) [Compound 136, (20R)-20-[2-(3-aminocyclobutyl)ethyl]-5α-pregnan-3β-ol]				half-life at 1 µM [4]: 1.6 h
C[C@H](CCCC(O)c1cccc2c1nnn2C)[C@H]1CC[C@H]2[C@H]3[C@H](CC[C@]12C)[C@@]1(C)CC[C@H](O)[C@H](O)[C@@H]1CC3(F)F (stereo partly drawn) [Compound 272, (1R,3aS,3bS,5aR,6R,7 S,9aR,9bS,11aR)-4,4-Difluoro-1-[(2R)-6-hydroxy-6-(1-methylbenzo[d][1,2,3]triazol-4-yl)hexan-2-yl]-9a,11a-dimethylhexadecahyd ro-1H-cyclopenta[1,2-a]phenanthrene-6,7-diol]	225 µM (≈ 126 µg/mL)	< 200 nM	0.116 µM	
COc1cccc(F)c1C(O)CC[C@@H](C)[C@H]1CC[C@H]2[C@H]3[C@H](CC[C@]12C)[C@@]1(C)CC[C@H](O)[C@H](O)[C@@H]1CC3(F)F (stereo partly drawn) [Compound 333, (1R,3aS,3bS,5aR,6R,7S,9aR,9bS,11aR)-4,4-difluoro-1-[(2R)-5-(2-fluoro-6-methoxyphenyl)-5-hydroxypentan-2-yl]-9a,11a-dimethylhexadecahydro-1H-cyclopenta[1,2-a]phenanthrene-6,7-diol]	148 µM (≈ 79.7 µg/mL)	200 to 500 nM	0.118 µM	
COc1nc(F)ccc1[C@@H](O)CC[C@@H](C)[C@H]1CC[C@H]2[C@H]3[C@H](CC[C@]12C)[C@@]1(C)CC[C@H](O)[C@H](O)[C@@H]1CC3(F)F [Compound 337, (1R,3aS,3bS,5aR,6R,7S,9aR,9bS,11aR)-4,4-difluoro-1-[(2R,5S)-5-(6-fluoro-2-methoxypyridin-3-yl)-5-hydroxypentan-2-yl]-9a,11a-dimethylhexadecahydro-1H-cyclopenta[1,2-a]phenanthrene-6,7-diol]	246 µM (≈ 133 µg/mL)	< 200 nM	0.155 µM	
COc1nc(F)ccc1[C@H](O)CC[C@@H](C)[C@H]1CC[C@H]2[C@H]3[C@H](CC[C@]12C)[C@@]1(C)CC[C@H](O)[C@H](O)[C@@H]1CC3(F)F [Compound 338, (1R,3aS,3bS,5aR,6R,7S,9aR,9bS,11aR)-4,4-difluoro-1-[(2R,5R)-5-(6-fluoro-2-methoxypyridin-3-yl)-5-hydroxypentan-2-yl]-9a,11a-dimethylhexadecahydro-1H-cyclopenta[1,2-a]phenanthrene-6,7-diol]	34.7 µM (≈ 18.7 µg/mL)	< 200 nM	0.143 µM	
